Experimental data: patent US9593127B2, “Heterocyclylalkyne derivatives and their use as modulators of mGluR5 receptors” (RECORDATI IRELAND LTD., priority 2014, dated 2017)

Key:
[1] = target: T1, human mGlu5 receptor (CHO T-REx h-mGluR5 cells) (Homo sapiens (Human), UniProt P41594); experiment: Calcium fluorescence measurement, potentiation of mGlu5 activation at EC20 of glutamate; format: cell-based; conditions: for Fold Increase Glutam. / Fold Increase 1 microM Glutam.: agonist glutamate; for EC50: potentiation, agonist glutamate at EC20, read-out: EC50 nM Glutam.
From the text: (§1) Cell lines stably transfected were generated using inducible expression vectors encoding human mGlu5 receptor using the Tetracycline-Regulated Expression system (T-REx™ system, Invitrogen, Life Technologies). Human mGluR5 open reading frame (ORF), comprehensive of the stop codon, were cloned into the pcDNA4/TO/myc-His™ A vector, carrying the TetO2 sequences. The insertion site was HindIII-PstI for mGluR5 receptors. The obtained constructs were then transfected into the T-REx CHO™ cell line using the FuGENE protocol (Roche); the CHO T-REx™ cell line stably expresses the Tet repressor (from the pcDNA6/TR plasmid) under the selection of blasticidin, 10 μg/ml. Stable clones were obtained selecting with zeocine 1 mg/ml and maintaining in ULTRA CHO medium (LONZA) supplemented with dialyzed FBS, zeocin, blasticidine, at 37° C., in an atmosphere of 5% CO2. The expression of h-mGluR5 receptors was de-repressed with 1 μg/ml tetracycline for 18 h before binding experimentation, while the expression of h-mGluR5 receptors was de-repressed respectively with 3 ng/ml and 10 ng/ml tetracycline for 18 h before calcium fluorescence experimentation.
(§2) Cells were seeded into black-walled, clear-bottom, 96-well plates at a density of 80000 cell/well, in RPMI (without Phenol Red, without L-glutamine; Gibco LifeTechnologies, CA) supplemented with 10% dialyzed FBS. Following 18-h incubation with tetracycline, the cells were loaded with […] Ca^2+—sensitive fluorescent dye Fluo-4/AM (Molecular Probes) in Hanks' balanced saline solution (HBSS, Gibco LifeTechnologies, CA) with 20 mM Hepes (Sigma) and 2.5 mM probenecid (Sigma), for 1 h at 37° C. The cells were washed three times with HBSS to remove extracellular dye. Fluorescence signals were measured by using the fluorescence microplate reader Flexstation III (Molecular Devices) at sampling intervals of 1.5 s for 60 s.
(§3) The antagonist potency was determined using the EC80 of the quisqualate used as agonist and the potentiation of mGlu5 activation was determined using the EC20 of the agonist (quisqualate or glutamate). The compounds were applied 10 minutes before the application of the agonist. For binding and calcium assay studies, the compounds were dissolved in DMSO or demineralized water according to their solubility. All the reported doses were those of the corresponding salts or bases.

[2] = target: T1, human mGlu5 receptor (CHO T-REx h-mGluR5 cells); experiment: Radioligand binding assay at cloned mGluR5 ([3H]MPEP displacement); conditions: 4 nM [3H]MPEP, read-out: h.c. mglu R5 IC50
From the text: as §1
Affinity at transmembrane glutamate metabotropic mGluR5 receptor subtypes was evaluated according to the methods of Anderson (Anderson et al., J Pharmacol. Exp. Ther., (2002), Vol. 303(3), pp. 1044-51), with some modifications. Cloned mGluR5 was obtained by re-suspending CHO T-REx h-mGluR5 cells (50 μg/well) in 20 mM HEPES, 2 mM MgCl2, 2 mM CaCl2, pH 7.4, that then were incubated in a final volume of 1 ml for 60 min at 25° C. with 4 nM [^3H]MPEP in the absence or presence of competing drugs. Non-specific binding was determined in the presence of […] MPEP. The incubation was stopped by addition of cold Tris buffer pH 7.4 and rapid filtration through 0.2% polyethyleneimine pretreated Filtermat 1204-401 (Perkin Elmer) filters. The filters were then washed with cold buffer and the radioactivity retained on the filters was counted by liquid scintillation spectrometry (Betaplate 1204 BS-Wallac).
as §3
The inhibition curves of the tested compounds at native and cloned mGluR1 and mGluR5 subtypes were determined by nonlinear regression analysis using software Prism 4.0 (Graphpad, San Diego, Calif.). The IC50 values and pseudo-Hill slope coefficients were estimated by the program. The values for the inhibition constant, Ki, were calculated according to the equation Ki=IC50/(1+[L]/Kd), where [L] is the concentration of radioligand and Kd is the equilibrium dissociation constant of the radioligand-receptor complex (Cheng et al., Biochem. Pharmacol. (1973), Vol. 22, pp. 3099-3108).

[3] = target: T1, human mGlu5 receptor (CHO T-REx h-mGluR5 cells); experiment: Calcium fluorescence measurement, potentiation of mGlu5 activation at EC20 of quisqualate; format: cell-based
From the text: as §1, §2, §3

T1 sequence (P41594 21-1212): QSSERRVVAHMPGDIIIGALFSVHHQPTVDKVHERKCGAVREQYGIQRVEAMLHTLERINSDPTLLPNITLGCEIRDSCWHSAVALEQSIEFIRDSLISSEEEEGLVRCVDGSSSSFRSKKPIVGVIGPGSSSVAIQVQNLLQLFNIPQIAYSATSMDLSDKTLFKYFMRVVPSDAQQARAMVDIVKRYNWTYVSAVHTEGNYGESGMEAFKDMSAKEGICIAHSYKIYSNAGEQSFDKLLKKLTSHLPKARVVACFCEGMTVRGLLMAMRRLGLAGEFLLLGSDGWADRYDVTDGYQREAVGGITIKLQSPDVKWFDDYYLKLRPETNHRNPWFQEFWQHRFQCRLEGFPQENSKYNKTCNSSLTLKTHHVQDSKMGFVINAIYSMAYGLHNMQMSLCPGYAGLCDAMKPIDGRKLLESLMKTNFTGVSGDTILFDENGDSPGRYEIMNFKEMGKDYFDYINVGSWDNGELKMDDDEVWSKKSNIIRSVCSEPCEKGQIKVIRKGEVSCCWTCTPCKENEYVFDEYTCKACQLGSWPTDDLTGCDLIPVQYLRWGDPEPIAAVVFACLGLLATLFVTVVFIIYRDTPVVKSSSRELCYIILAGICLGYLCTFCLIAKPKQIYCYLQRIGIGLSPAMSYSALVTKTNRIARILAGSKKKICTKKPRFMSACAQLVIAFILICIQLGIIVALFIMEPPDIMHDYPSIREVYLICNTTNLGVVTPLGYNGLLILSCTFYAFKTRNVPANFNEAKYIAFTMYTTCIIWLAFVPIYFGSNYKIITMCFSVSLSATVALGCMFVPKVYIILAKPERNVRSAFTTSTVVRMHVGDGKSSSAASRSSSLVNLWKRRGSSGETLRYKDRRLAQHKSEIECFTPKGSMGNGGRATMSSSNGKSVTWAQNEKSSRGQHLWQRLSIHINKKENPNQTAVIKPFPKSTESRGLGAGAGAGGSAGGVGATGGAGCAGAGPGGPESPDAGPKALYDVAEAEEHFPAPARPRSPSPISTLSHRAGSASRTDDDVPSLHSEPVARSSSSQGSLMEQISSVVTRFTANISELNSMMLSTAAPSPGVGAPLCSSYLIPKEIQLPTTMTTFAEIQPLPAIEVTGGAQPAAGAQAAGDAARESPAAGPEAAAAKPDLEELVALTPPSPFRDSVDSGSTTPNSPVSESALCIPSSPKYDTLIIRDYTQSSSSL

Fold Increase Glutam. [1] [fold]	IC50 [2] [µM]	Fold Increase 1 microM Glutam. [1] [fold]	EC50 [1] [nM]	SMILES	further results
0				O=C(Nc1cccnc1)N1CCC2C(C#Cc3cccc(Cl)c3)=NOC21 (stereo not shown) [Example 36, 3-(3-chlorophenylethynyl)-N-(pyridin-3-yl)-3a,4,5,6a-tetrahydropyrrolo[3,2-d]isoxazole-6-carboxamide]	
5.8		8.48	33.9	CC(C)(C)COC(=O)N1CCC2C(C#Cc3cccc(Cl)c3)=NOC21 (stereo not shown) [Example 24, 2,2-dimethylpropyl-3-(3-chlorophenylethynyl)-3a,4,5,6a-tetrahydropvrrolo[3,2-d]isoxazole-6-carboxylate]	
0				Cc1ccc(C(=O)N2CCC3C(C#Cc4cccc(Cl)c4)=NOC32)o1 (stereo not shown) [Example 29, 3-(3-chlorophenylethynyl)-3a,4,5,6a-tetrahydropyrrolo[3,2-d]isoxazol-6-yl-(5-methylfuran-2-yl)methanone]	
			542	CC(C)CCOC(=O)N1CCC2C(C#Cc3cccc(Cl)c3)=NOC21 (stereo not shown) [Example 34, 3-methylbutyl-3-(3-chlorophenylethynyl)-3a,4,5,6a-tetrahydropyrrolo[3,2-d]isoxazole-6-carboxylate]	
4.7		3.11	777	O=C(OCC1CC1)N1CCC2C(C#Cc3cccc(Cl)c3)=NOC21 (stereo not shown) [Example 22, cyclopropylmethyl-3-(3-chlorophenylethynyl)-3a,4,5,6a-tetrahydropyrrolo[3,2-d]isoxazole-6-carboxylate]	
0				O=C(c1ccoc1)N1CCC2C(C#Cc3cccc(Cl)c3)=NOC21 (stereo not shown) [Example 28]	
0				CC(C)OC(=O)N1CCC2C(C#Cc3cccc(Cl)c3)=NOC21 (stereo not shown) [Example 21, isopropyl-3-(3-chlorophenylethynyl)-3a,4,5,6a-tetrahydropyrrolo[3,2-d]isoxazole-6-carboxylate]	
5.11		4.08	96.9	O=C(NC1CCCC1)N1CCC2C(C#Cc3cccc(Cl)c3)=NOC21 (stereo not shown) [Example 27, 3-(3-chlorophenylethynyl)-N-cyclopentyl-3a,4,5,6a-tetrahydropyrrolo[3,2-d]isoxazole-6-carboxamide]	
3.69		3.95	108	O=C(C1CCCC1)N1CCC2C(C#Cc3cccc(Cl)c3)=NOC21 (stereo not shown) [Example 30, 3-(3-chlorophenylethynyl)-3a,4,5,6a-tetrahydropyrrolo[3,2-d]isoxazol-6-yl-(cyclopentyl)methanone]	
0				CC(C)NC(=O)N1CCC2C(C#Cc3cccc(Cl)c3)=NOC21 (stereo not shown) [Example 25, 3-(3-chlorophenylethynyl)-N-(propan-2-yl)-3a,4,5,6a-tetrahydropyrrolo[3,2-d]isoxazole-6-carboxamide]	
	0.00699			CCN(C(=O)N1CCC2C(C#Cc3cccc(Cl)c3)=NOC21)C(C)C (stereo not shown) [Example 4, 3-[2-(3-chlorophenyl)ethynyl]-N-ethyl-N-isopropyl-3a,4,5,6a-tetrahydropyrrolo[3,2-d]isoxazole-6-carboxamide]	
5.09		2.65	54.6	CC(C)(C)NC(=O)N1CCC2C(C#Cc3cccc(Cl)c3)=NOC21 (stereo not shown) [Example 26, N-t-butyl-3-(3-chlorophenylethynyl)-3a,4,5,6a-tetrahydropyrrolo[3,2-d]isoxazole-6-carboxamide]	

More lines, now with the values behind:

SMILES	Fold Increase Glutam. [1] [fold]	IC50 [2] [µM]	Fold Increase 1 microM Glutam. [1] [fold]	EC50 [1] [nM]	further results
CCOC(=O)N1CCC2C(C#Cc3cccc(C)n3)=NOC21 (stereo not shown) [Example 20, ethyl 3-[2-(6-methyl-2-pyridyl)ethynyl]-3a,4,5,6a-tetrahydropyrrolo[3,2-d]isoxazole-6-carboxylate]		> 1			Fold Inc. Quisq. ([3]; agonist quisqualate): 0 fold
O=C(OC1CCCC1)N1CCC2C(C#Cc3cccc(Cl)c3)=NOC21 (stereo not shown) [Example 23, cyclopentyl-3-(3-chlorophenylethynyl)-3a,4,5,6a-tetrahydropyrrolo[3,2-d]isoxazole-6-carboxylate]				144	
Cc1cccc(C#CC2=NOC3C2CCN3C(=O)N2CCCCC2)n1 (stereo not shown) [Example 17, [3-[2-(6-methyl-2-pyridyl)ethynyl]-3a,4,5,6a-tetrahydropyrrolo[3,2-d]isoxazol-6-yl]-(1-piperidyl)methanone]		> 1			Fold Inc. Quisq. ([3]; agonist quisqualate): 1.27 fold
CON(C)C(=O)N1CCC2C(C#Cc3cccc(C)n3)=NOC21 (stereo not shown) [Example 19, N-methoxy-N-methyl-3-[2-(6-methyl-2-pyridyl)ethynyl]-3a,4,5,6a-tetrahydropyrrolo[3,2-d]isoxazole-6-carboxamide]		0.239			
O=C(N1CCOCC1)N1CCC2C(C#Cc3cccc(Cl)c3)=NOC21 (stereo not shown) [Example 6, [3-[2-(3-chlorophenyl)ethynyl]-3a,4,5,6a-tetrahydropyrrolo[3,2-d]isoxazol-6-yl]-morpholino-methanone]	5.1	0.0248	3.24	95.2	Fold Shift 1 microM Quisq. ([3]; 1 microM, agonist quisqualate): 2.7 fold; Fold Inc. Quisq. ([3]; agonist quisqualate): 3.3 fold; EC50 ([3]; potentiation, agonist quisqualate at EC20, read-out: EC50 nM Quisq.): 132 nM
Cc1cccc(C#CC2=NOC3C2CCN3C(=O)N2CCCCC2)c1 (stereo not shown) [Example 12, [3-[2-(m-tolyl)ethynyl]-3a,4,5,6a-tetrahydropyrrolo[3,2-d]isoxazol-6-yl]-(1-piperidyl)methanone]		0.0106			
Cc1cccc(C#CC2=NOC3C2CCN3C(=O)N2CCOCC2)n1 (stereo not shown) [Example 18, [3-[2-(6-methyl-2-pyridyl)ethynyl]-3a,4,5,6a-tetrahydropyrrolo[3,2-d]isoxazol-6-yl]-morpholino-methanone]		> 1			
CCOC(=O)N1CCC2C(C#Cc3cccc(C)c3)=NOC21 (stereo not shown) [Example 16, ethyl 3-[2-(m-tolyl)ethynyl]-3a,4,5,6a-tetrahydropyrrolo[3,2-d]isoxazole-6-carboxylate]		0.152			
Cc1cccc(C#CC2=NOC3C2CCN3C(=O)OC(C)(C)C)n1 (stereo not shown) [Example 5, tert-butyl 3-[2-(6-methyl-2-pyridyl)ethynyl]-3a,4,5,6a-tetrahydropyrrolo[3,2-d]isoxazole-6-carboxylate]		0.708			Fold Inc. Quisq. ([3]; agonist quisqualate): 0 fold
CN1CCN(C(=O)N2CCC3C(C#Cc4cccc(Cl)c4)=NOC32)CC1 (stereo not shown) [Example 32, 3-(3-chlorophenylethynyl)-3a,4,5,6a-tetrahydropyrrolo[3,2-d]isoxazol-6-yl-(4-methylpiperazin-1-yl)methanone]	2.92		1.92	1100	
O=C(C1CCOCC1)N1CCC2C(C#Cc3cccc(Cl)c3)=NOC21 (stereo not shown) [Example 31, 3-(3-chlorophenylethynyl)-3a,4,5,6a-tetrahydropyrro[3,5,6a-tetrahdrorrolo3,2-d]oxazol-6-yl-(oxan-4-yl)methanone]	5.29		2.14	301	
